Source: patent US6737383B1, “Herbicidal oxadiazolidines” (priority 1999, dated 2004)

Key:
cocklebur = experiment: Test B pre/postemergence cocklebur; assay type: in vivo, Xanthium strumarium
How it was run: (§1)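 Herbicidal effect was estimated by eye on a ten-point control scale after plants spent twelve to sixteen days in a greenhouse following soil or foliar treatment. Foliar sprays targeted plants at one to four leaves; all doses were formulated in a non-phytotoxic solvent with surfactant.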

wild oat = experiment: Test B pre/postemergence wild oat; assay type: in vivo, Avena fatua
How it was run: as §1

smallflower flatsedge = experiment: Test B flood test smallflower flatsedge; assay type: in vivo, Cyperus difformis
How it was run: (§2)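 Each value is a visual injury score relative to controls, with 10 meaning complete control and 0 no effect. Evaluation took place twelve to sixteen days after the 2-leaf-stage plants were treated and kept in the greenhouse.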

bedstraw = experiment: Test B pre/postemergence bedstraw; assay type: in vivo, Galium aparine
How it was run: as §1

bamyardgrass = experiment: Test B flood test barnyardgrass; assay type: in vivo, Echinochloa crus-galli
How it was run: as §2

sugar beet = experiment: Test B pre/postemergence sugar beet; assay type: in vivo, Beta vulgaris
How it was run: as §1

morningglory = experiment: Test B pre/postemergence morningglory; assay type: in vivo, Ipomoea hederacea
How it was run: as §1

soybean = experiment: Test B pre/postemergence soybean; assay type: in vivo, Glycine max
How it was run: as §1

rice = experiment: Test B flood test rice; assay type: in vivo, Oryza sativa
How it was run: as §2

corn = experiment: Test B pre/postemergence corn; assay type: in vivo, Zea mays
How it was run: as §1

pigweed = experiment: Test B pre/postemergence pigweed; assay type: in vivo, Amaranthus retroflexus
How it was run: as §1

blackgrass = experiment: Test B pre/postemergence blackgrass; assay type: in vivo, Alopecurus myosuroides
How it was run: as §1

velvetleaf = experiment: Test B pre/postemergence velvetleaf; assay type: in vivo, Abutilon theophrasti
How it was run: as §1

rape = experiment: Test B pre/postemergence rape; assay type: in vivo, Brassica napus
How it was run: as §1

purple nutsedge = experiment: Test B pre/postemergence purple nutsedge; assay type: in vivo, Cyperus rotundus
How it was run: as §1

surinam grass = experiment: Test B pre/postemergence surinam grass; assay type: in vivo, Brachiaria decumbens
How it was run: as §1

[1] = Postemergence, Rate 62 g/ha, scale 0 to 10, 0 is no effect, 10 is complete control
[2] = Postemergence, Rate 250 g/ha, scale 0 to 10, 0 no effect, 10 complete control
[3] = Preemergence, Rate 62 g/ha, scale 0 to 10 (0 no effect, 10 complete control)
[4] = Preemergence, Rate 125 g/ha, scale 0 to 10 (0 no effect, 10 complete control)
[5] = Preemergence, Rate 250 g/ha, scale of 0 to 10 where 0 is no effect and 10 is complete control
[6] = Preemergence, Rate 500 g/ha, scale 0 (no effect) to 10 (complete control)
[7] = Rate 125 g/ha, Postemergence, scale 0 to 10, 0 no effect, 10 complete control
[8] = Rate 500 g/ha, Postemergence, scale 0 to 10, 0 no effect, 10 complete control
[9] = Rate 125 g/ha, Postemergence section (flood test species), scale 0 to 10, 0 no effect, 10 complete control
[10] = Rate 500 g/ha, listed under Postemergence (flood test species), scale 0 to 10, 0 no effect, 10 complete control
[11] = flood test, listed under Postemergence, Rate 250 g/ha, scale 0 to 10, 0 no effect, 10 complete control

Cc1ccccc1-n1c(=O)on(C(=O)N(c2cc(F)ccc2F)C(C)C)c1=O [Compound 68]
Cocklebur plant response rating (cocklebur; [1]): 0 | Cocklebur plant response rating (cocklebur; [2]): 2 | Cocklebur plant response rating (cocklebur; [3]): 0 | Plant response rating, Cocklebur (cocklebur; [4]): 0 | Plant response rating, Cocklebur (cocklebur; [5]): 0 | Cocklebur plant response rating (cocklebur; [6]): 0 | Cocklebur plant response rating (cocklebur; [7]): 0 | Cocklebur plant response rating (cocklebur; [8]): 2 | Wild oats plant response rating (wild oat; [1]): 0 | Wild oats plant response rating (wild oat; [2]): 0 | Wild oats plant response rating (wild oat; [3]): 0 | Plant response rating, Wild oats (wild oat; [4]): 0 | Plant response rating, Wild oats (wild oat; [5]): 2 | Wild oats plant response rating (wild oat; [6]): 2 | Wild oats plant response rating (wild oat; [7]): 0 | Wild oats plant response rating (wild oat; [8]): 0 | S. Flatsedge plant response rating (smallflower flatsedge; [1]): 0 | S. Flatsedge plant response rating (smallflower flatsedge; [9]): 0 | S. Flatsedge plant response rating (smallflower flatsedge; [10]): 0 | S. Flatsedge plant response rating (smallflower flatsedge; [11]): 0 | Bedstraw plant response rating (bedstraw; [1]): 4 | Bedstraw plant response rating (bedstraw; [2]): 7 | Bedstraw plant response rating (bedstraw; [3]): 0 | Plant response rating, Bedstraw (bedstraw; [4]): 0 | Plant response rating, Bedstraw (bedstraw; [5]): 4 | Bedstraw plant response rating (bedstraw; [6]): 4 | Bedstraw plant response rating (bedstraw; [7]): 7 | Barnyardgrass plant response rating (bamyardgrass; [1]): 0 | Barnyardgrass plant response rating (bamyardgrass; [9]): 0 | Barnyardgrass plant response rating (bamyardgrass; [10]): 0 | Barnyardgrass plant response rating (bamyardgrass; [11]): 0 | Sugarbeets plant response rating (sugar beet; [1]): 0 | Sugarbeets plant response rating (sugar beet; [2]): 0 | Sugarbeets plant response rating (sugar beet; [3]): 0 | Plant response rating, Sugarbeets (sugar beet; [4]): 0 | Plant response rating, Sugarbeets (sugar beet; [5]): 0 | Sugarbeets plant response rating (sugar beet; [6]): 0 | Sugarbeets plant response rating (sugar beet; [7]): 0 | Sugarbeets plant response rating (sugar beet; [8]): 3 | Morningglory plant response rating (morningglory; [1]): 2 | Morningglory plant response rating (morningglory; [2]): 2 | Morningglory plant response rating (morningglory; [3]): 0 | Plant response rating, Morningglory (morningglory; [4]): 0 | Plant response rating, Morningglory (morningglory; [5]): 0 | Morningglory plant response rating (morningglory; [6]): 0 | Morningglory plant response rating (morningglory; [7]): 2 | Morningglory plant response rating (morningglory; [8]): 3 | Soybean plant response rating (soybean; [1]): 1 | Soybean plant response rating (soybean; [2]): 3 | Soybean plant response rating (soybean; [3]): 0 | Plant response rating, Soybean (soybean; [4]): 0 | Plant response rating, Soybean (soybean; [5]): 0 | Soybean plant response rating (soybean; [6]): 0 | Soybean plant response rating (soybean; [7]): 2 | Soybean plant response rating (soybean; [8]): 3 | Rice plant response rating (rice; [1]): 0 | Rice plant response rating (rice; [9]): 0 | Rice plant response rating (rice; [10]): 0 | Rice plant response rating (rice; [11]): 0 | Corn plant response rating (corn; [1]): 0 | Corn plant response rating (corn; [2]): 0 | Corn plant response rating (corn; [3]): 0 | Plant response rating, Corn (corn; [4]): 0 | Plant response rating, Corn (corn; [5]): 0 | Corn plant response rating (corn; [6]): 0 | Corn plant response rating (corn; [7]): 0 | Corn plant response rating (corn; [8]): 0 | Redroot pigweed plant response rating (pigweed; [1]): 0 | Redroot pigweed plant response rating (pigweed; [2]): 0 | Redroot pigweed plant response rating (pigweed; [3]): 0 | Plant response rating, Redroot pigweed (pigweed; [4]): 2 | Plant response rating, Redroot pigweed (pigweed; [5]): 7 | Redroot pigweed plant response rating (pigweed; [6]): 10 | Redroot pigweed plant response rating (pigweed; [7]): 0 | Redroot pigweed plant response rating (pigweed; [8]): 0 | Blackgrass plant response rating (blackgrass; [1]): 0 | Blackgrass plant response rating (blackgrass; [2]): 2 | Blackgrass plant response rating (blackgrass; [3]): 0 | Plant response rating, Blackgrass (blackgrass; [4]): 2 | Plant response rating, Blackgrass (blackgrass; [5]): 2 | Blackgrass plant response rating (blackgrass; [6]): 4 | Blackgrass plant response rating (blackgrass; [7]): 0 | Blackgrass plant response rating (blackgrass; [8]): 2 | Velvetleaf plant response rating (velvetleaf; [1]): 0 | Velvetleaf plant response rating (velvetleaf; [2]): 2 | Velvetleaf plant response rating (velvetleaf; [3]): 0 | Plant response rating, Velvetleaf (velvetleaf; [4]): 0 | Plant response rating, Velvetleaf (velvetleaf; [5]): 0 | Velvetleaf plant response rating (velvetleaf; [6]): 0 | Velvetleaf plant response rating (velvetleaf; [7]): 0 | Velvetleaf plant response rating (velvetleaf; [8]): 3 | Rape plant response rating (rape; [1]): 0 | Rape plant response rating (rape; [2]): 0 | Rape plant response rating (rape; [3]): 0 | Plant response rating, Rape (rape; [4]): 0 | Plant response rating, Rape (rape; [5]): 2 | Rape plant response rating (rape; [6]): 6 | Rape plant response rating (rape; [7]): 0 | Rape plant response rating (rape; [8]): 0 | Nutsedge plant response rating (purple nutsedge; [1]): 0 | Nutsedge plant response rating (purple nutsedge; [2]): 0 | Plant response rating, Nutsedge (purple nutsedge; [4]): 0 | Plant response rating, Nutsedge (purple nutsedge; [5]): 10 | Nutsedge plant response rating (purple nutsedge; [6]): 10 | Nutsedge plant response rating (purple nutsedge; [7]): 0 | Nutsedge plant response rating (purple nutsedge; [8]): 0 | B. signalgrass plant response rating (surinam grass; [1]): 0 | B. signalgrass plant response rating (surinam grass; [2]): 0 | B. signalgrass plant response rating (surinam grass; [3]): 0 | Plant response rating, B. signalgrass (surinam grass; [4]): 3 | Plant response rating, B. signalgrass (surinam grass; [5]): 4 | B. signalgrass plant response rating (surinam grass; [6]): 8 | B. signalgrass plant response rating (surinam grass; [7]): 0 | B. signalgrass plant response rating (surinam grass; Rate 500 g/ha, Postemergence, scale of 0 to 10 where 0 is no effect and 10 is complete control): 0
